Measured values from publication PMC10204800 (Frontiers in Pharmacology, 2023).

Biological target: T1, hDOR (human delta opioid receptor) (Homo sapiens, UniProt P41143)
T1 construct: gene OPRD1; stably transfected in CHO cells (CHO-hDOR); membrane homogenates
Format: binding
Conditions: read-out: Ki values (nM) Mean (SEM)

T1 sequence (P41143 whole entry): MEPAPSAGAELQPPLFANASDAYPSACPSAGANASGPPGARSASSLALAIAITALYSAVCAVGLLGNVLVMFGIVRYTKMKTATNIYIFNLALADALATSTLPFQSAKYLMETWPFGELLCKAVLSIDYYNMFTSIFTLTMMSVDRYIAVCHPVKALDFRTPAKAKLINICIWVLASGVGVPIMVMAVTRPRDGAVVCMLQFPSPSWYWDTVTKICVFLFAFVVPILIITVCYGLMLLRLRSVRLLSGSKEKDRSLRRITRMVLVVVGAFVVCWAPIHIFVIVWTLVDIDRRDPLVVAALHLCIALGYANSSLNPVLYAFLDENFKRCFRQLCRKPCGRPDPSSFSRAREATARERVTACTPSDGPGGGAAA

“(4R,4aS,6R,7R,7aR,12bS)-3-(cyclopropylmethyl-d 2 )-6-(2-hydroxy-3,3-dimethylbutan-2-yl)-7-methoxy-1,2,3,4,5,6,7,7a-octahy dro-4a,7-ethano-4,12-methanobenzofuro[3,2-e]isoquinolin-9-ol [BUP-D2]” was tested, and the Ki was 0.424 nM.
